Source: patent publication US20080103199A1, “TREATMENT OF PERVASIVE DEVELOPMENTAL DISORDERS” (priority 2006, published 2008)
Where two headings read alike, the source gives them in different places.

Assays:
[1] = test system: submissive rats; settings: treatment of the submissive subject, 3 weeks; literature (Malatynska 2002); cited from earlier work
[2] = test system: dominant rats; settings: administered to dominant rats; literature (Malatynska 2002); cited from earlier work
[3] = test system: submissive rats; assay: Reduction of Submissive Behavior Model (RSBM) of depression, dominant-submissive rat food competition test; assay type: in vivo, Sprague-Dawley rats; settings: treatment of submissive rats; unpublished observation
Description: In this study, the effects of COMPOUND #7 on dominant or submissive behavior in pairs of rats competing for food are examined. It has been shown that anti-manic drugs, including anticonvulsants, decrease dominance and antidepressant drugs reduce submissiveness. This model uses dominant behavior as a model of mania and submissive behavior as a model of depression. The dominance and submissiveness is defined in a competition test and measured as the relative success of two food-restricted rats to gain access to a feeder. Rats are randomly paired and placed in an apparatus allowing them to compete for a food reward. The dominant-submissive relationship develops over a 2-week period. The submissive or dominant animals in pairs selected after 2 weeks of training were treated orally […] (b.i.d.) with COMPOUND #7 at 3 or 30 mg/kg for 5 weeks. The partner of the drug-treated animal was treated with vehicle.
The objective of this study was to determine if COMPOUND #7 is active in the Reduction of Submissive Behavior Model (RSBM) of depression and the Reduction of Dominant Behavior Model (RDBM) of mania. Measurements were made at two doses (3 and 30 mg/kg) after oral twice a day (b.i.d.) administration. The effect of the drug in the RSBM was compared to the effect of fluoxetine (10 mg/kg) and vehicle (0.5% methylcellulose). The effect of the drug in the RDBM was compared with the effect of lithium (100 mg/kg) and vehicle (0.5% methylcellulose). The endpoints measured were the development of a significant reduction of submissive or dominant behavior and its time of onset.
The DSR developed by two rats competing for food uses the apparatus in FIG. 1.
In the experiments described in this report Sprague-Dawley rats weighing 160 to 180 g were used. Testing for the development of a DSR between paired rats begins with the random assignment of rats into pairs. […]
The test involves placing each member of a pair in opposite chambers of the testing apparatus. […] The test is conducted once a day over a 5-minute period and the time spent on the feeder by each animal is recorded. […]

## CN(C)CCCN1c2ccccc2CCc2ccccc21 [imipramine]
[1]
  Effect on submissive behavior: reduced submissive behavior

## CN1C(=O)CN=C(c2ccccc2)c2cc(Cl)ccc21 [diazepam]
[1]
  Effect on submissive behavior: ineffective

## CNCCC(Oc1ccc(C(F)(F)F)cc1)c1ccccc1 (centres unmarked) [fluoxetine]
[1]
  Effect on submissive behavior: reduced submissive behavior

## NC(=O)N1c2ccccc2C=Cc2ccccc21 [carbamazepine]
[2]
  Effect on competitive behavior of dominant rats: significantly reduced competitive behavior

## CC(N)Cc1ccccc1 (centres unmarked) [amphetamine, reference compound]
[3]
  Effect on submissive behavior: ineffective
